Source: article PMC7876048, “Mutant-selective degradation by BRAF-targeting PROTACs” (Nature Communications, 2021)

How the values were obtained:
[1] = molecular target: T1, BRAF-p61^V600E (SK-MEL-239 C4 cells) (Homo sapiens, UniProt P15056+P40337, DEL169-380/V600E); test: BRAF degradation by immunoblot in SK-MEL-239 C4 cells; format: cell-based; details: p61 dimer
T1 construct: endogenous in cells; host or cells: SK-MEL-239 C4; HCC-364 vr1
Procedure: (§1) Cells were plated in 6 well dishes (5 × 10^5–8 × 10^5 cells) and allowed to attach overnight. […] The plates were then placed on ice and washed 1x with chilled PBS and lysed in buffer containing 25 mM Tris-HCl [pH 7.4], 0.25% sodium deoxycholate, 150 mM NaCl, 1% Triton X-100, supplemented with protease inhibitors (1x Roche protease inhibitor cocktail) and phosphatase inhibitors (10 mM NaF, 1 mM Na3OV4, and 20 mM β-glycerophosphate). Lysates were then cleared at 21,000 g for 10 min at 4 °C. Protein concentrations of the supernatants were then quantified using a Pierce BCA Protein Assay. 12–40 µg of protein were separated using a gradient (4–20%) Criterion TGX precast gel and transferred unto a nitrocellulose membrane. The membranes were then blocked in 5% non-fat milk in TBST (Tris-buffered Saline with Tween 20) for 1 h before probing with the indicated primary antibody overnight. Membranes were imaged using Bio-Rad Image Lab software using ECL prime detection reagent (GE Healthcare, RPN2232 or ThermoScientific, 34095).
(§2) Western blot data was quantified by using the band feature in Image Lab, and values were averaged and analyzed in GraphPad Prism. DC50 and DMAX values were fitted using a three parameter [inhibitor] versus response and reported directly from the Prism output. Mean ± SD and unpaired t-tests were performed in GraphPad Prism.

[2] = molecular target: T2, BRAF-p61^V600E (SK-MEL-239 C4 cells) (Homo sapiens, UniProt P15056, DEL169-380/V600E); test: as above; format: cell-based; details: p61 dimer
T2 construct: endogenous in cells; host or cells: SK-MEL-239 C4; HCC-364 vr1
T2 sequence (P15056 with tags, fused parts or gaps DEL169-380/V600E): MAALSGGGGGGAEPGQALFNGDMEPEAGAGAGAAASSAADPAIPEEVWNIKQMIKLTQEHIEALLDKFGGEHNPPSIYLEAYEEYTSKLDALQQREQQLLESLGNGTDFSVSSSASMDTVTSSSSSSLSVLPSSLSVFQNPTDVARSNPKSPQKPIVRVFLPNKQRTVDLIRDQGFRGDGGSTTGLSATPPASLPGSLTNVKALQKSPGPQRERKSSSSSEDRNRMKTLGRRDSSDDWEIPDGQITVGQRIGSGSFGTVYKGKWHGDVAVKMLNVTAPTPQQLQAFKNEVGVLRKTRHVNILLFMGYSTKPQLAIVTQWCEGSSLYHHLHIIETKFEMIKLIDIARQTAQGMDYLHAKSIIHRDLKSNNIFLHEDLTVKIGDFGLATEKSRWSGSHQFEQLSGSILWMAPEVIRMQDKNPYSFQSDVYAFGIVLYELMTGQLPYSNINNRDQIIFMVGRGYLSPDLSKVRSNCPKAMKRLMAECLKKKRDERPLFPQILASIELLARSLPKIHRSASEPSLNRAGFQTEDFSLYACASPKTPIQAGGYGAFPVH
T2 sequence (P40337 whole entry, stated change not applied, further chain): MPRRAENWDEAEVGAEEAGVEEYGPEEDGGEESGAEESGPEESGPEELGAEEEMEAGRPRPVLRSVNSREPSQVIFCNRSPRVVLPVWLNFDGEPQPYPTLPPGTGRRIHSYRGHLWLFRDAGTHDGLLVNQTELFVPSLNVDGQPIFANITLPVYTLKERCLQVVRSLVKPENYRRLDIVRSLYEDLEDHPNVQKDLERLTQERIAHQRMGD
T2 sequence (Q15370 whole entry partner): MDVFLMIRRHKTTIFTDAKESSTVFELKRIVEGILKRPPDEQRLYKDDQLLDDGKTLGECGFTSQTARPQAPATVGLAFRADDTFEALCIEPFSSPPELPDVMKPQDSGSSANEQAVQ
T2 sequence (Q15369 whole entry partner): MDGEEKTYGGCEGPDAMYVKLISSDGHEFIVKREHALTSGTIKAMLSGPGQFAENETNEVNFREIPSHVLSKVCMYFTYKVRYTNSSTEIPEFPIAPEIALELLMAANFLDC
Procedure: as §1, §2

[3] = molecular target: T3, BRAF^V600E (A375 xenograft) (Homo sapiens, UniProt P15056, V600E); test: A375 xenograft study, BRAF degradation in tumor; format: in vivo, mice; details: 50 mg/kg or 150 mg/kg i.p. once a day for 3 days, 8 h after final dose
T3 construct: 5 million A375 cells were subcutaneously implanted in female nu/nu mice; endogenous in cells; host or cells: A375 cells as subcutaneous xenograft tumour in female nu/nu mice
T3 sequence (P15056 whole entry V600E): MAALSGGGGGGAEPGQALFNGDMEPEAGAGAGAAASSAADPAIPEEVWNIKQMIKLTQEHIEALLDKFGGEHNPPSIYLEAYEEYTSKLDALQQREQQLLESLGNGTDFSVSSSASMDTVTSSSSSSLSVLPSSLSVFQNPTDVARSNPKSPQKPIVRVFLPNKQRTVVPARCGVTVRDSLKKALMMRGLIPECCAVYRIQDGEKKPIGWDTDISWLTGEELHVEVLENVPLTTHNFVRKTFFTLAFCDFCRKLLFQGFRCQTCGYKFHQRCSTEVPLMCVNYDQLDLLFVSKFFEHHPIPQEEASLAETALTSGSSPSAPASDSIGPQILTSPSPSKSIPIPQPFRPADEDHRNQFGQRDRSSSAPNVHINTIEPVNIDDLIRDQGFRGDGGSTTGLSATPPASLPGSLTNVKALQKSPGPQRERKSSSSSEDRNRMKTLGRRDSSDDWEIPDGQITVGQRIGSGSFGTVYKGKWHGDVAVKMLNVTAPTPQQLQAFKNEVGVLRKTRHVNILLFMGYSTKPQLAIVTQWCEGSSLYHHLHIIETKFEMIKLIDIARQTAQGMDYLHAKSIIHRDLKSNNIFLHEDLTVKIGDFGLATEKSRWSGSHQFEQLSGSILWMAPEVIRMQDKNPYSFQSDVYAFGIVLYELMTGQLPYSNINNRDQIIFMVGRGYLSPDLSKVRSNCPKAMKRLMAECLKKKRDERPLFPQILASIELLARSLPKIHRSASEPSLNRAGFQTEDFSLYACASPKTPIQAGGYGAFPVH
Procedure: 5 million A375 cells were subcutaneously implanted in female nu/nu mice. […] Mice were sacrificed 8 h after the final dose. Tissues were harvested, flash frozen, and lysed in 1X cell lysis buffer (Cell Signaling #9803) supplemented with protease and phosphatase inhibitors. Harvested tumors were disrupted using metal beads in a Tissuelyser. Homogenates were normalized for protein content and analyzed using SDS-PAGE and Western blotting. All studies were performed in compliance with institutional guidelines under an IACUC approved protocol.

[4] = molecular target: T4, BRAF^WT (SK-BR-3 cells, HER2 amplification) (Homo sapiens, UniProt P15056); test: BRAF^WT degradation by immunoblot in SK-BR-3 cells; format: cell-based
T4 construct: endogenous in cells; host or cells: SK-BR-3
T4 sequence (P15056 whole entry): as the sequence (P15056 whole entry V600E) above, with E600V counted along it
Procedure: as §1, §2

[5] = Body weight in SK-MEL-246 efficacy study; format: in vivo, mice; details: either dose (50 mg/kg BID, 100 mg/kg QD)
Procedure: 10 million SK-MEL-246 cells were subcutaneously implanted in female nu/nu mice. The tumor volumes and mice weights were measured twice a week after the implantation. […] All studies were performed in compliance with institutional guidelines under an Institutional Animal Care and Use Committee (IACUC) approved protocol. Investigators were not blinded when assessing the outcome of the in vivo experiments.

[6] = molecular target: T5, BRAF^WT (A-431 cells, HER1 amplification) (Homo sapiens, UniProt P15056); test: BRAF^WT degradation by immunoblot in A-431 cells; format: cell-based
T5 construct: endogenous in cells; host or cells: A-431
T5 sequence (P15056 whole entry): as the sequence (P15056 whole entry V600E) above, with E600V counted along it
Procedure: as §1, §2

[7] = molecular target: T6, BRAF-p61^V600E (HCC-364 vr1 cells) (Homo sapiens, UniProt P15056+P40337, DEL169-380/V600E); test: BRAF degradation by immunoblot in HCC-364 vr1 cells; format: cell-based
T6 construct: endogenous in cells; host or cells: SK-MEL-239 C4; HCC-364 vr1
T6 sequence (P15056 with tags, fused parts or gaps DEL169-380/V600E): as the sequence (P15056 with tags, fused parts or gaps DEL169-380/V600E) above
T6 sequence (P40337 whole entry, stated change not applied): as the sequence (P40337 whole entry, stated change not applied, further chain) above
T6 sequence (Q15370 whole entry partner): as the sequence (Q15370 whole entry partner) above
T6 sequence (Q15369 whole entry partner): as the sequence (Q15369 whole entry partner) above
Procedure: as §1, §2

[8] = test system: SK-MEL-239 C4 cells (BRAF^WT/BRAF-p61^V600E); test: Cell proliferation (MTS) assay; format: cell-based; details: 5 days
[9] = test system: VBC:PROTAC:BRAF ternary complex (V5-BRAF^V600E vs V5-BRAF^WT, NIH3T3 lysates); test: Cell lysate based ternary complex (GST-VBC pulldown) assay; format: binding; details: 5000 nM SJF-0628
Procedure: Glutathione sepharose 4B was washed twice with water and then blocked for 1 h at room temperature with 10% BSA in TBST. The beads were then washed again twice with TBST and once with wash buffer (50 mM HEPES pH 7.5, 150 mM NaCl, 1 mM DTT, 0.01% NP40, 5 mM MgCl2, 10% glycerol) and then purified GST-VBC was immobilized for 2 h at 4 °C at 2.5 pmole per μL of beads. The beads were then washed thrice with wash buffer, resuspended and BRAF WT or V600E protein was added at 500 nM per 50 μL reaction with 5 μL of beads. The bead:BRAF mixture was then aliquoted to separate tubes and PROTAC was added at the indicated concentration (PROTACs were intermediately diluted in 50% DMSO) and this was incubated at 4 °C for 2 h. The beads were washed 4 times with 1 mL column of TBST and then eluted with SDS loading buffer.
For experiments in which the input substrate is a whole cell lysate, the sample was prepared as follows: […] of confluent NIH3T3 cells were doxycycline induced overnight, after which the cells were washed with DPBS and lysed using lysis buffer (50 mM Tris-HCl, pH 7.4, 015 M NaCl, 1 mM EDTA,1% NP40, 10% glycerol). The lysate was cleared by centrifugation and then added to the beads as an input substrate, as above.

[10] = 1 μM cobimetinib pre-treatment 1 hour, then 1 μM SJF-0628

T1 sequence (P15056 with tags, fused parts or gaps DEL169-380/V600E): as the sequence (P15056 with tags, fused parts or gaps DEL169-380/V600E) above
T1 sequence (P40337 whole entry, stated change not applied): as the sequence (P40337 whole entry, stated change not applied, further chain) above
T1 sequence (Q15370 whole entry partner): as the sequence (Q15370 whole entry partner) above
T1 sequence (Q15369 whole entry partner): as the sequence (Q15369 whole entry partner) above

Dmax [1]: > 80%
DC50 [2]: 72 nM
DMAX, degradation of BRAF in the xenograft [3]: > 90%
time at which complete degradation of BRAF^WT observed [4, 10]: 12 h
time to PROTAC-induced degradation of BRAF^WT [4, 10]: ≤ 4 h
degradation of BRAF^WT ([4]; PROTAC concentrations greater than 1 µM): ~ 50%
SJF-0628-dependent BRAF^WT degradation ([4]; lapatinib 2-hour pre-treatment): 10%
SJF-0628-dependent BRAF^WT degradation ([4]; without lapatinib pre-treatment): 48%
degradation of BRAF^WT ([6]; A-431 cells, PROTAC concentrations greater than 1 µM): ~ 30%
PROTAC-dependent degradation of BRAF^WT ([6]; GDC-0623 pre-treatment (500 nM, 3 h), SJF-0628 20 h, A431 (also OVCAR-8, SK-BR-3)): minimal PROTAC-dependent degradation
DC50 [7]: 147 nM
Dmax ([7]; HCC364): > 90%
EC50 ([8]; 120 h, read-out: EC50, cell growth): 218 nM
SMILES: CCCS(=O)(=O)Nc1ccc(F)c(C(=O)c2c[nH]c3ncc(-c4ccc(N5CCN(CC(=O)NC(C(=O)N6CC(O)CC6C(=O)NCc6ccc(-c7scnc7C)cc6)C(C)(C)C)CC5)cc4)cc23)c1F (stereo not shown) [SJF-0628]
body weight loss [5]: did not observe a significant body weight loss
decrease in cell growth [8]: ~ 80%
ternary complex with VHL, BRAF^V600E relative to BRAF^WT [9]: ~ 3 fold
